The values that follow are results of earlier work, collected in patent US10172940B2 (priority 2009, dated 2019).

The subject of the data set is canine visceral leishmaniasis (CVL).

Take `Oc1ncnc2[nH]ncc12` [allopurinol]: the “parasitological cure and PCR result” value (20 months of treatment) is given as “without parasitological cure or negative results for PCR”. Further, where the note is “dog, in vivo”, the “clinical recovery / clinical improvement” value was 9/10 and the “dogs remaining positive for parasites (culture, PCR of lymph node, parasitological aspect)” value is 8 dogs.
Take `NC[C@@H]1O[C@H](O[C@H]2[C@@H](O)[C@H](O[C@@H]3[C@@H](O)[C@H](N)C[C@H](N)[C@H]3O[C@H]3O[C@H](CO)[C@@H](O)[C@H](O)[C@H]3N)O[C@@H]2CO)[C@H](N)[C@@H](O)[C@@H]1O` [aminosidine]: the “dogs remaining positive for parasites (culture, PCR of lymph node, parasitological aspect)” value (dog, in vivo) is recorded as 4/4. For the setting “higher doses”, the “dogs with absence of symptoms and parasites for 4 years” value is 3/12; the dogs with relapse is listed as 9.
Regarding Meglumine antimoniate, where the note is “15 dogs treated”, the “treated dogs from which parasites were recovered” value is listed as 79%. Also, the “dogs PCR positive after treatment” value (dog, in vivo) is reported as 5/6.
Take `N=C(N)c1ccc(OCCCCCOc2ccc(C(=N)N)cc2)cc1` [pentamidine]: under “dog, in vivo”, the “clinical recovery / clinical improvement” value is reported as “improve clinically” and the “recurrence of the disease” value is listed as “show recurrence of the disease”.
